According to paper PMC2576352, “The V1-V3 region of a brain-derived HIV-1 envelope glycoprotein determines macrophage tropism, low CD4 dependence, increased fusogenicity and altered sensitivity to entry inhibitors” (Retrovirology, 2008):

T1: N40, biotinylated HR1-derived peptide (HIV-1, biotin on the amino terminus)
T1 construct: peptide derived from the heptad repeat 1 (HR1) region of HIV-1 gp41; Held on a streptavidin SA chip by its biotin; also called HR1-based peptide; source: synthetic peptide, custom synthesized
T1 peptide: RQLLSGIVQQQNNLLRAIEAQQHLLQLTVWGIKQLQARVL


What was measured:
[1] = tested on: brain-derived Env versus spleen-derived Env; conditions: cited from earlier work
Excerpt: We and others have investigated whether viruses or Env with these particular phenotypes are present among primary isolates in the brain/CNS of HIV-1-infected individuals. In this sense, Peters et al. have reported that the macrophage tropism of brain-derived Env seems to correlate with reduced sensitivity to inhibition by an anti-CD4 mAb but not by CCR5 antagonists or gp41-targeting antibodies or fusion inhibitor peptides. […] We hypothesized that the brain gp120 would contain the determinants for low CD4 dependence and higher avidity for CD4, while gp41 could likely play a role in the increased fusogenicity and reduced sensitivity to fusion inhibitors. In the present study, we have used chimeric and ...

[2] = tested on: pseudotypes containing wild-type, chimeric and mutant Env; assay: Inhibition of pseudotype infection by entry/fusion inhibitors, Env panel; type: cell-based, HIV-1; conditions: all pseudotypes; data not shown
Experimental: To produce Env-pseudotyped, luciferase-reporter viruses, 293T cells were co-transfected using calcium phosphate precipitation (ProFection Mammalian Transfection System, Promega, Madison, WI) with each Env expression vector and with the Env-deficient, pNL4-3-luc^+env^- provirus, developed by N. Landau by introducing a frameshift mutation in the env gene of pNL4-3-luc^+ [87]. Culture supernatants containing the pseudotyped particles were collected 48–72 hours after transfection, clarified by centrifugation, aliquoted and stored at -80°C until use. Pseudotype particles lacking envelope glycoproteins, which are generated by co-transfecting the luciferase HIV-1 pro-viral backbone with an empty expression vector, are used as negative control for all pseudotype infections. Pseudotype stocks were quantitated using a p24^gag antigen capture ELISA (SAIC-National Cancer Institute) and normalized amounts of stocks were used to infect target cells for 5–6 hours at 37°C. At 2–3 days post-infection, the cells were washed with PBS and lysed, and the amount of entry mediated by each Env was measured by detecting luciferase activity (Luciferase Assay System, Promega) in a microplate luminometer (GloMax, Promega), following manufacturer's instructions. Results are obtained as relative light units (RLU) per second. […]
Inhibition curves obtained by plotting the relative infection (expressed as a percent of untreated) versus the concentration of the inhibitor were analyzed by non-linear regression with a sigmoidal dose-response model (variable slopes) using GraphPad Prism software, version 4.02 (GraphPad Software, San Diego, CA); this analysis uses a four parameter logistic equation, Y = Bottom + (Top-Bottom)/( 1+10^((log10IC50−X)⋅Slope) ) where Y is the response, Bottom is 0 and Top is 100, X is the logarithm of the concentration, and Slope is the slope of the curve. […] Fusogenicity data were analyzed by non-linear regression with a one-phase exponential model (using GraphPad Prism) that uses the equation Y=Ymax(1-e^(-kX)), where Ymax is the maximum response and k is the observed rate. […]

[3] = molecular target: T1, N40, biotinylated HR1-derived peptide; assay: SPR; Biacore 3000; biotinylated N40 held on a streptavidin SA chip, N40scr surface as reference; T-1249 and T-1249-BR at 81–650 nM passed over at 25 µl/min, 25°C; 25 mM Tris-HCl, 150 mM NaCl, pH 7.4, 8% DMSO; conditions: both partners purified

| Molecule | binding result [3] | also measured |
| --- | --- | --- |
| Cc1ccc(-c2ccc3c(c2)C=C(C(=O)Nc2ccc(C[N+](C)(C)C4CCOCC4)cc2)CCC3)cc1.[Cl-] [TAK-779] | – | sensitivity of brain-derived Env to CCR5 inhibitor [1]: absence of differences in sensitivity |
| YTNLIYNLIEKSQNQQEMNEQELLKLDTWASLWNWF [T-20-BR, T-20-derived peptide with amino acid changes present in HR2 region of brain-derived env clones] | – | inhibition of pseudotype infection [2]: very similar inhibition |
| WQEWEQKITALLEQAQIQQEKNEYELQKLDKWASLWEWF (also called parental T-1249; HR2-derived peptide; source: synthetic peptide, custom synthesized (BioSynthesis, Inc.)) [T-1249] | binds | – |
| WQEWEQKITALLEQAQIQQEMNEQELQKLDTWASLWEWF (T-1249 with three amino acid changes (printed in bold) that are present in the HR2 region of the H0002GH brain-derived env clones; also called modified T-1249-BR; HR2-derived peptide; source: synthetic peptide, custom synthesized (BioSynthesis, Inc.)) [T-1249-BR] | binds | – |
